Assay results published in patent US12390437B2, “Itaconic acid derivatives and uses thereof intreating an inflammatory disease or a disease associated with an undesirable immune response” (Sitryx Therapeutics Limited, priority 2019, dated 2025).
Like-named read-outs stand apart in the source and are kept apart here.

Assays:
NQO1 = NQO1 enzyme activation assay as a readout of NRF2 activation in THP-1 cells; assay type: cell-based; settings: Homo sapiens; for Emax: THP-1, percentage activation at top concentration, normalised to DMF (100%) and vehicle controls; for EC50: differentiated THP-1 cells, LPS, 48 hr
Description: NQO1 Enzyme Activation Assay as a Readout of NRF2 Activation in THP-1 Cellular Background
NAD(P)H dehydrogenase [quinone] […] Induction of this gene is concomitant with the inhibition of proinflammatory cytokine transcription and suppression of the inflammatory response (Kobayashi E. H. et al., 2016). The NQO1 enzyme activation activities of compounds of formula (IW-1) were determined using a cellular based NQO1 activation assay (Abcam). The NQO1 activation assay was run in differentiated THP-1 cells (a human monocyte-like cell line) as described below. All reagents described are from Sigma-Aldrich unless specified otherwise. Compounds were prepared as 10 mM DMSO stocks.
THP-1 cells were expanded as a suspension up to 80% confluence in appropriate growth medium. Cells were harvested, suspended, treated with phorbol 12-myristate 13-acetate (PMA) and plated according to the cell density required for each plate format over a 72 hr period (37° C./5% CO2).
Following 72 hrs of THP-1 cell incubation, cellular medium was removed and replaced with fresh media. Working concentrations of compounds were prepared and pre-incubated for 30 minutes (37° C./5% CO2). Compound treatment was then applied to the PMA treated THP-1 cell plate followed by LPS treatment. A ‘low’ (DMSO vehicle only) control and ‘high’ (designated concentration of dimethyl fumarate) was applied to each plate at the point of compound treatment. Cells were subsequently incubated for a 48 hr period (37° C./5% C02) after which all NQO1 assay reagents were prepared according to the manufacturer's instructions. NQO1 extraction buffer was applied to PBS washed THP-1 cells and incubated on ice for 15 minutes to prepare THP-1 lysates for the NQO1 activity assay. THP-1 lysates were diluted 1:5 with PBS and treated with a 1:1 volume of kit prepared NQO1 Reaction Buffer. Absorbance was subsequently measured kinetically on an appropriate reader over a 6 minute period.
For activation determination, the fold change in response per well was determined by first calculating the average NQO1 activation data for the vehicle control and then dividing the individual well response by the averaged NQO1 response for the vehicle control as shown below: Fold change=(Sample value)/MeanMin Where ‘Min’=vehicle control only
The relative 50% activation concentration (EC50) was determined from the resulting fold change response curve. The maximum efficacy (Emax) was reported as the percentage activation calculated at the top concentration of compound used in the titration applied. If a full curve was unattainable preventing a correct curve fit, the Emax value was extrapolated using existing curve data. All percentage activation data were normalised to the DMF and vehicle controls, meaning the Emax represents the percentage […] achieved by a compound at a particular concentration relative to that achieved by DMF (set as the ‘High’ control and therefore representative of 100% activation).

[1] = test system: IL-6 cytokine output from THP-1s; experiment: THP-1 AlphaLISA IL-6 cytokine assay; assay type: cell-based, human; settings: for IC50: Homo sapiens
How it was run: (§1)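 PMA-differentiated THP-1 cells (72 h) were pre-incubated 30 min with compound, then LPS-primed 24 h and pulsed with nigericin for 1 h at 37 °C. Supernatant cytokine was quantified by AlphaLISA; % inhibition was normalised to +/−LPS plate controls and IC50 taken from concentration-response curves.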

[2] = test system: IL-1β cytokine output from THP-1s; experiment: THP-1 AlphaLISA IL-1β cytokine assay; assay type: cell-based, human; settings: for IC50: Homo sapiens, read-out: IL-1β (IC50)
How it was run: as §1

NRF2 = NRF2 +/-GSH activation assay (DiscoverX PathHunter NRF2 translocation kit, U2OS cells); assay type: cell-based; settings: Homo sapiens, U2OS, Table 10, assay of Biological Example 5 (NRF2)
How it was run: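 Percent activation, normalised to dimethyl fumarate (high) and vehicle (low) controls, was fitted for EC50 after 6 hours treatment of U2OS PathHunter cells. In the +GSH arm compounds were first pre-incubated 30 minutes in 6 mM working GSH; NRF2 translocation read by chemiluminescent complementation.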

[3] = Mouse pharmacokinetic study, oral administration; assay type: in vivo; settings: mouse plasma, Example 112 dosed orally at 100 mg/kg (Intermediate 8 = metabolite)
Description: Pharmacokinetic studies were carried out in 6-8-week-old male C57BL/6 mice having free access to food and water. Intravenous dosing was conducted at 10 mg/kg (5 mL/kg; vehicle: 10% DMSO-90% (25% HP-13-CD in water)) via tail vein injection, with sampling at 3 min, 8 min, 15 min, 30 min, 1, 2, 4, 6 and 8 hours, i.e., 9 time points in total (N=3/time point), using semi-serial bleeding for plasma. Oral compound administration, via gavage, was carried out at 100 mg/kg (10 mL/kg; vehicle: 5% DMSO-95% (0.5% HPMC+0.1% Tween 80 in water)), with sampling at 5 min, 15 min, 30 min, 1, 2, 4, 6, 8 and 24 hours, i.e., 9 time points in total (N=3/time point), using semi-serial bleeding for plasma.
For both intravenous and oral routes, the mice were restrained manually at the designated time points, with ca. 110 μL of blood being taken into K2EDTA tubes via the facial vein. Blood samples were put on ice and centrifuged to obtain plasma samples from which the concentration at each time point was measured by LC-MS/MS.

[4] = PMA-differentiated THP-1 cells, LPS 24 hr then Nigericin 1 hour
[5] = THP-1, PMA-differentiated THP-1 cells, LPS 24 hr then Nigericin 1 hour
[6] = Table 10, assay of Biological Example 1 (THP-1)

EC50 (NQO1) [µM] | IC50 [1, 4] [µM] | IC50 [2, 5] [µM] | SMILES | Emax (NQO1) [%] | other results
19.8 | 1.1 | 1.7 | C=C(CC(=O)OCCCCCCCC)C(=O)OCCS(=O)(=O)N(C)C [Example 16, 1-(2-(N,N-dimethylsulfamoyl)ethyl) 4-octyl 2-methylenesuccinate] | 108 | –
5.4 | – | – | C=C(CC(=O)OCCCCCCCC)C(=O)OCCCS(C)(=O)=O [Example 18, 1-(3-(methylsulfonyl)propyl) 4-octyl 2-methylenesuccinate] | 67 | –
8.5 | 6.8 | 7.4 | C=C(CC(=O)OCCCCCC)C(=O)OC1COC1 [Example 38, 4-hexyl 1-(oxetan-3-yl) 2-methylenesuccinate] | 111 | –
21 | – | – | C=C(CC(=O)OCCCC)C(=O)OC1COC1 [Example 37, 4-butyl 1-(oxetan-3-yl) 2-methylenesuccinate] | 105 | –
7.3 | 12 | 16.7 | C=C(CC(=O)OCCCC)C(=O)OCCS(C)(=O)=O [Example 7, 4-butyl 1-(2-(methylsulfonyl)ethyl) 2-methylenesuccinate] | 78 | –
170 | – | – | C=C(CC(=O)OC1CCC1)C(=O)OC1CCC1 [Example 43, dicyclobutyl 2-methylenesuccinate] | 150 | –
38.1 | – | – | C=C(CC(=O)OC1CCCCCCC1)C(=O)OC [Example 41, 4-cyclooctyl 1-methyl 2-methylenesuccinate] | 129 | –
2.8 | – | – | C=C(CC(=O)OCCCCCCCC)C(=O)OCCOC(F)(F)F [Example 13, 4-octyl 1-(2-(trifluoromethoxy)ethyl) 2-methylenesuccinate] | 45 | –

The remaining lines, values behind:

SMILES | EC50 (NQO1) [µM] | IC50 [1, 4] [µM] | IC50 [2, 5] [µM] | Emax (NQO1) [%] | other results
C=C(CC(=O)OCCCCCCCC)C(=O)OCCN(C)C [Example 17, 1-(2-(dimethylamino)ethyl) 4-octyl 2-methylenesuccinate] | 2.6 | 1.4 | 1.5 | 68 | –
C=C(CC(=O)OC1COC1)C(=O)OC1COC1 [Example 44, di(oxetan-3-yl) 2-methylenesuccinate] | 64.6 | – | – | 217 | –
C=C(CC(=O)OCCCCCC)C(=O)OCCC#N [Example 11, 1-(2-cyanoethyl) 4-hexyl 2-methylenesuccinate] | 10.4 | – | 3.7 | 124 | –
C=C(CC(=O)OC)C(=O)OCCC#N [Example 10, 1-(2-cyanoethyl) 4-methyl 2-methylenesuccinate] | 15.2 | 7.6 | 27.9 | 107 | –
C=C(CC(=O)OCCCCCCCC)C(=O)OC1CCC1 [Example 45, 1-cyclobutyl 4-octyl 2-methylenesuccinate] | 1.6 | – | – | 72 | –
C=C(CC(=O)OCCCCCCCC)C(=O)OC(C)CS(C)(=O)=O (stereo not shown) [Example 19, 1-(1-(methylsulfonyl)propan-2-yl) 4-octyl 2-methylenesuccinate] | 51 | 1.9 | 3.6 | 44 | –
C=C(CC(=O)OCCCCCCCC)C(=O)OC [Example 42, 1-methyl 4-octyl 2-methylenesuccinate] | 24.3 | – | – | 66 | –
C=C(CC(=O)OCCCC)C(=O)OCCC#N [Example 8, 1-(2-cyanoethyl) 4-butyl 2-methylenesuccinate] | 35.4 | – | – | 152 | –
C=C(CC(=O)OCCCCCCCC)C(=O)OCCC(=O)N(C)C [Example 6, 1-(3-(dimethylamino)-3-oxopropyl) 4-octyl 2-methylenesuccinate] | 30.6 | 12.1 | 12.8 | 154 | –
C=C(CC(=O)OCCCC)C(=O)OCCS(=O)(=O)c1ccc(C)cc1 [Example 39, 4-butyl 1-(2-tosylethyl) 2-methylenesuccinate] | 1.3 | 7.3 | 5.1 | 59 | –
C=C(CC(=O)OCCCCCCCC)C(=O)OCCS(=O)(=O)c1ccc(C)cc1 [Example 40, 4-octyl 1-(2-tosylethyl) 2-methylenesuccinate] | 16.6 | 3.4 | 1.7 | 56 | –
C=C(CC(=O)OC)C(=O)OCCS(C)(=O)=O [Example 12, 4-methyl 1-(2-(methylsulfonyl)ethyl) 2-methylenesuccinate] | 22.7 | 11.3 | 28.2 | 88 | –
C=C(CC(=O)O[C@H](C)CCCCCC)C(=O)O [Intermediate 8, (R)-2-methylene-4-(octan-2-yloxy)-4-oxobutanoic acid] | – | – | – | – | EC50 (NRF2; read-out: EC50): 20.4 µM; Emax (NRF2; read-out: Emax): 165%; IC50 [1, 6]: 23.7 µM; IL-6 (IC50) [1, 6]: improved cytokine-lowering potencies compared to dimethyl itaconate; concentration at 0.083 h ([3]; male, C57BL/6, po, time 0.083 h, read-out: Example 112 and Intermediate 8 concentrations following oral administration): 18500 ng/mL; concentration at 0.25 h ([3]; male, C57BL/6, po, time 0.25 h, read-out: Example 112 and Intermediate 8 concentrations following oral administration): 19800 ng/mL; concentration at 0.5 h ([3]; male, C57BL/6, po, time 0.5 h, read-out: Example 112 and Intermediate 8 concentrations following oral administration): 12800 ng/mL; concentration at 1 h ([3]; male, C57BL/6, po, time 1 h, read-out: Example 112 and Intermediate 8 concentrations following oral administration): 4710 ng/mL; concentration at 2 h ([3]; male, C57BL/6, po, time 2 h, read-out: Example 112 and Intermediate 8 concentrations following oral administration): 2160 ng/mL; concentration at 4 h ([3]; male, C57BL/6, po, time 4 h, read-out: Example 112 and Intermediate 8 concentrations following oral administration): 719 ng/mL; concentration at 6 h ([3]; male, C57BL/6, po, time 6 h, read-out: Example 112 and Intermediate 8 concentrations following oral administration): 614 ng/mL; concentration at 8 h ([3]; male, C57BL/6, po, time 8 h, read-out: Example 112 and Intermediate 8 concentrations following oral administration): 132 ng/mL; Example 112 and Intermediate 8 concentrations following oral administration ([3]; time 24 h): BQL; IC50 ([2]; THP-1, Table 10, assay of Biological Example 1 (THP-1)): 56.7 µM; IL-1β (IC50) [2, 6]: improved cytokine-lowering potencies compared to dimethyl itaconate
